Patent EP4714938A1, “HDAC1/2 SELECTIVE INHIBITOR AND USE THEREOF” (Wigen Biomedicine Technology (Shanghai) Co., Ltd., priority 2023, dated 2024)
Read-outs that look alike come from different tables or passages of the source.

Assays:
HDAC2 = HDAC2 (Homo sapiens, UniProt Q92769); experiment: HDAC enzyme inhibitory activity, FRET method; format: biochemical
Description: (§3) The compounds of the present disclosure were assayed for enzyme inhibitory activity against various subtypes of HDAC enzymes by the FRET method. The various subtypes of HDAC enzymes were obtained either through purification or direct purchase of assay kits.
(§4) The specific method was as follows: The enzyme was added to a 384-well plate, and a reaction buffer was added to the control well. Serially diluted DMSO sample solutions were added to the reaction wells, and the plate was incubated at room temperature for 15 min. Then a chromogenic agent was added to stop the reaction, and fluorescence was generated. The fluorescence intensity was measured using an EnVision multi-label microplate reader (excitation: 355 nm, emission: 460 nm). The endpoint value was read after the color development reached stability. The inhibition IC50 of the compounds was calculated using GraphPad Prism4 software relative to DMSO.

[1] = Stability in liver microsomes; format: in vitro ADME; conditions: for half-life at 1 µM / T1/2: 1 µM compound, 37 °C, NADPH regeneration system; for Clint: 1 µM
Description: After the 1 µM compound was individually incubated at 37 °C for various durations with […] liver microsomes from humans, monkeys, beagles, rats, or mice in the presence of an NADPH regeneration system, LC-MS-MS was used to analyze the remaining amount of the compound, and T1/2 was calculated. Table 10. Evaluation results of stability of compounds of the present disclosure in human and mouse liver microsomes

HDAC3 = HDAC3 (Homo sapiens, UniProt O15379); experiment: HDAC enzyme inhibitory activity, FRET method; format: biochemical
Description: as §3, §4

HDAC1 = HDAC1 (Homo sapiens, UniProt Q13547); experiment: HDAC enzyme inhibitory activity, FRET method; format: biochemical
Description: as §3, §4

H3K 27 Acetyl lysine = experiment: Intracellular H3K 27 acetyl lysine level by ELISA in HeLa cells; format: cell-based; conditions: 24 h of treatment
Description: (§1) HeLa cells were seeded into a 96-well plate at 20000 cells/well. After overnight adherence culture, the serially diluted compound was added. After 24 h of treatment, intracellular levels of acetyl lysine and H3K 27 acetyl lysine were quantified by ELISA. Table 8. Effect of compound of the present disclosure on levels of acetyl lysine and H3K 27 acetyl lysine

293T cell = experiment: Inhibition of cell proliferation (CTG, intracellular ATP); format: cell-based; conditions: Homo sapiens, HEK-293T, 72 h
Description: (§2) Jurkat or 293T cells were seeded into a 96-well plate at 3000 cells/well. After overnight adherence culture, the serially diluted compound in DMSO was added. After 72 h, the intracellular ATP level was determined by CTG. The IC50 for the inhibition of cell proliferation by the compounds was calculated compared to the DMSO group. Table 7. Inhibitory activity of compounds of the present disclosure against Jurkat/293T cell proliferation (IC50, µM)

Jurkat cell = experiment: as above; format: cell-based; conditions: 72 h
Description: as §2

Acetyl lysine = experiment: Intracellular acetyl lysine level by ELISA in HeLa cells; format: cell-based; conditions: 24 h of treatment
Description: as §1

HDAC10 = molecular target: T1, HDAC10 (Homo sapiens, UniProt Q969S8); conditions: read-out: IC50 HDAC subtype 10; Table 6
T1 sequence (Q969S8 1-669): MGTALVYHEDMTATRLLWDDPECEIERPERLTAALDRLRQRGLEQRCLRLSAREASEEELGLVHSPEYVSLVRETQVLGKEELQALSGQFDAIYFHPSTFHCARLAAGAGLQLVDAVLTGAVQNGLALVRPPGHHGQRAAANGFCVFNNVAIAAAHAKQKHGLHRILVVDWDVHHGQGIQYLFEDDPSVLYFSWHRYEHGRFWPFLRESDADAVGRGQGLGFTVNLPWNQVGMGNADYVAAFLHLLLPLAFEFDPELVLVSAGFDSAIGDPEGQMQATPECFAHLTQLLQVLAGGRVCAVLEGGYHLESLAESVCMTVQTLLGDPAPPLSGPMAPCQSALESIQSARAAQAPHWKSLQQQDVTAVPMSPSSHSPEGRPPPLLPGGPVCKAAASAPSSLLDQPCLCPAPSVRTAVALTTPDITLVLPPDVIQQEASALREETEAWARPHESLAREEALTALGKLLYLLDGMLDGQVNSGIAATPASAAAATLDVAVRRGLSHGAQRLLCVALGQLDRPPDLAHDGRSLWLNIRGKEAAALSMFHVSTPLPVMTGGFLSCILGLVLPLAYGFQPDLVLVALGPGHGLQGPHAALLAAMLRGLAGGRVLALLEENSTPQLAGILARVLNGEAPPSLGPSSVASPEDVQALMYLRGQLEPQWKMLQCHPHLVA
Description: as §3, §4

[2] = system: Mouse colon cancer MC38 cells; conditions: MC-38
Description: Female C57BL6N mice (aged 6 weeks, 18-22 g) were provided by Vital River Laboratory Animal Technology Co., Ltd. (China) and used one week after quarantine and acclimation. All animals were kept in a room at 23±2 °C with a relative humidity of 50±5%, artificial lighting was provided from 08:00 to 20:00 every day, and the air was exchanged 13-18 times per hour.
Mouse colon cancer MC38 cells were cultured conventionally in 1640 medium containing 10% fetal bovine serum in an incubator at 37 °C with 5% CO2. After being subcultured, the cells were collected when they reached the desired amount. The C57BL6N mice were subcutaneously injected with 2 × 10^6 MC38 cells on the right side to form tumors. After the tumors grew to about 100 mm^3, the animals were randomly grouped for administration. Tumor volumes were measured with a caliper on day 3, day 7, day 10, day 14, day 17, and day 21 after the administration. The ability of the compounds to inhibit tumor growth was evaluated according to the tumor growth inhibition rate (TGI) = 1 - (tumor volume on day 28 in treatment group - tumor volume on day 1 in treatment group)/(tumor volume on day 28 in control group - tumor volume on day 1 in control group). The toxicity of the compounds was evaluated according to the body weight and state of the mice.
The groups were as follows: 1) solvent control group; 2) PD-1+Reg group; 3) Compound 1 group; 4) Reference Compound group; 5) compound 1 (10mg/kg) and PD-1+Reg Combination group; 6) compound 1 (30mg/kg) and PD-1+Reg Combination group; 7) compound 1 (90mg/kg) and PD-1+Reg Combination group; 8) Reference Compound (10mg/kg) and PD-1+Reg Combination group; 9) Reference Compound (30mg/kg) and PD-1+Reg Combination group; 10) Reference Compound (90mg/kg) and PD-1+Reg Combination group, with 6 mice per group.
Reg represents Regorafenib PD-1 represents an anti-PD-1 antibody; IV represents administration via intravenous injection; PO represents oral administration; QD represents once-daily administration; QW represents once-weekly administration; CR represents complete remission (complete disappearance of the tumor after the dosing cycle is completed); PR represents partial response (tumor volume reduction exceeding 30% relative to the initial volume upon completion of the administration cycle); SD represents stable disease (tumor volume reduction or growth not exceeding 30% relative to the initial volume upon completion of the administration cycle); Died represents mouse died before the dosing cycle is completed; Administration period* is once daily (QD) for 10 consecutive days, followed by a 16-day off-treatment period; the once-weekly (QW) regimen is administered only on Day 1 and Day 8.

[3] = system: Mouse colon cancer CT-26 cells; conditions: for Tumor response, number of mice (CR/PR/SD): 6 mice per group; for TGI(%): QD for 14 consecutive days, PO
Description: Female BALB/c mice (aged 6 weeks, 18-22 g) were provided by Vital River Laboratory Animal Technology Co., Ltd. (China) and used one week after quarantine and acclimation. All animals were kept in a room at 23±2 °C with a relative humidity of 50±5%, artificial lighting was provided from 08:00 to 20:00 every day, and the air was exchanged 13-18 times per hour.
Mouse colon cancer CT-26 cells were cultured conventionally in 1640 medium containing 10% fetal bovine serum in an incubator at 37 °C with 5% CO2. After being subcultured, the cells were collected when they reached the desired amount. The BALB/c mice were subcutaneously injected with 2 × 10^5 CT-26 cells on the right side to form tumors. After the tumors grew to about 100 mm^3, the animals were randomly grouped for administration. Tumor volumes were measured with a caliper on day 3, day 7, day 10, day 14, day 17, and day 21 after the administration. The ability of the compounds to inhibit tumor growth was evaluated according to the tumor growth inhibition rate (TGI) = 1 - (tumor volume on day 28 in treatment group - tumor volume on day 1 in treatment group)/(tumor volume on day 28 in control group - tumor volume on day 1 in control group). The toxicity of the compounds was evaluated according to the body weight and state of the mice.

Chain of HDAC3 (O15379 whole entry, species assumed): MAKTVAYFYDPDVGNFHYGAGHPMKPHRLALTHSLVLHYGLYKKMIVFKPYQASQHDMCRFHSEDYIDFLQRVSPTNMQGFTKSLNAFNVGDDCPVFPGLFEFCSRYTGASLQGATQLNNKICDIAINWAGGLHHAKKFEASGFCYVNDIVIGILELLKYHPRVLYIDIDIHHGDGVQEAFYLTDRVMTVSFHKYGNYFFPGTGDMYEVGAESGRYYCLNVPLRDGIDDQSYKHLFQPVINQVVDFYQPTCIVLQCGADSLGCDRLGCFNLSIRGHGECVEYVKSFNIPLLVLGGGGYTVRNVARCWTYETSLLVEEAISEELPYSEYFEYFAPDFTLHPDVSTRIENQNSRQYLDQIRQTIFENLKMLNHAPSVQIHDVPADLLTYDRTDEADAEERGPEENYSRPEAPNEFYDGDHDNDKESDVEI
Chain of HDAC3 (Q9Y618 395-489 partner limits assumed, species assumed): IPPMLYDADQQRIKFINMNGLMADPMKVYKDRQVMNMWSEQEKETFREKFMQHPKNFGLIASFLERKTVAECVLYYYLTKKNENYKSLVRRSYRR
Chain of HDAC2 (Q92769 whole entry, species assumed): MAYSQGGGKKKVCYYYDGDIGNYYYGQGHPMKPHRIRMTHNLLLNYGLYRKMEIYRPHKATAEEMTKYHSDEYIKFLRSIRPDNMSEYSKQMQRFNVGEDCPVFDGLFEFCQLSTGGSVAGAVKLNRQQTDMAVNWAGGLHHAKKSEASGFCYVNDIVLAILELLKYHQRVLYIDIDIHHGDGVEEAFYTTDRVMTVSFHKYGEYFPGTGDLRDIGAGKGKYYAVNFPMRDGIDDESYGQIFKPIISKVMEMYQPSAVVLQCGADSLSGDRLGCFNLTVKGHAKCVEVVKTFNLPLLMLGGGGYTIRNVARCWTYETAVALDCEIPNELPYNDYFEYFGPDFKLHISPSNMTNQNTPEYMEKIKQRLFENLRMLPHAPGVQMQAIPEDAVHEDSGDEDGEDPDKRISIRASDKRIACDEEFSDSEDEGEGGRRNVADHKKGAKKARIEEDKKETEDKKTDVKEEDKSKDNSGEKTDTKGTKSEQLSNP
Chain of HDAC1 (Q13547 whole entry, species assumed): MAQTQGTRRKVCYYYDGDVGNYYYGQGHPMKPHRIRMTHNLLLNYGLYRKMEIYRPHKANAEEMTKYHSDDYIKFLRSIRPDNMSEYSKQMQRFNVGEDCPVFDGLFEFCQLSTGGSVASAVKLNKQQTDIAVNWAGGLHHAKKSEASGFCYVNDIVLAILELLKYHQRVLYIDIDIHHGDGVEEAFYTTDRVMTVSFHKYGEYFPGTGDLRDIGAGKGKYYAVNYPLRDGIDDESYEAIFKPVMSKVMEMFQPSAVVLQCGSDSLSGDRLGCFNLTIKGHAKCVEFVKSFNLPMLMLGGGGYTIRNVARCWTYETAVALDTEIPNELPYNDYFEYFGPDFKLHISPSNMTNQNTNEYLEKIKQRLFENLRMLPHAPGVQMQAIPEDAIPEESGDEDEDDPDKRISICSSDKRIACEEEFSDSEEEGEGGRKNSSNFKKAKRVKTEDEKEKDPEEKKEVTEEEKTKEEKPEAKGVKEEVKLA

| IC50 (HDAC2; Table 5, read-out: IC50 HDAC2) [µM] | CLint scaled at 1 µM ([1]; Human liver microsomes) [L/h/kg] | Clliver ([1]; Human liver microsomes) [L/h/kg] | half-life at 1 µM ([1]; Human liver microsomes) [h] | CLint scaled at 1 µM ([1]; Mouse liver microsomes) [L/h/kg] | Clliver ([1]; Mouse liver microsomes) [L/h/kg] | half-life at 1 µM ([1]; Mouse liver microsomes) [h] | IC50 (HDAC3; Table 5, read-out: IC50 HDAC3) [µM] | IC50 (HDAC1; Table 5, read-out: IC50 HDAC1) [µM] | IC50 (HDAC2; Table 4, read-out: IC50 HDAC2) [µM] | IC50 (HDAC3; Table 4, read-out: IC50 HDAC3) [µM] | IC50 (HDAC1; Table 4, read-out: IC50 HDAC1) [µM] | SMILES | H3K 27 Acetyl lysine Maximum (%) (H3K 27 Acetyl lysine) | H3K 27 Acetyl lysine Minimum effective concentration (H3K 27 Acetyl lysine) [nM] | Acetyl lysine Maximum (%) (Acetyl lysine) | Acetyl lysine Minimum effective concentration (Acetyl lysine) [nM] | further results |
| --- | --- | --- | --- | --- | --- | --- | --- | --- | --- | --- | --- | --- | --- | --- | --- | --- | --- |
| 0.03 to 0.3 | 0.496 | 0.355 | 3.51 | 0.027 | 0.027 | 201 | > 3 | < 0.03 |  |  |  | CS(C)(=O)=Nc1ccc(C(=O)Nc2cc(-c3ccc(F)s3)ccc2N)cc1 [Compound 33] |  |  |  |  |  |
| 0.03 to 0.3 |  |  |  |  |  |  | > 3 | < 0.03 | < 0.5 | > 5 | < 0.5 | CN1CCS(=O)(=Nc2ccc(C(=O)Nc3cc(-c4ccc(F)cc4)ccc3N)cc2)CC1 [Compound 67] | 300 | 16 | 570 | 16 | IC50 (293T cell): > 10 µM; IC50 (Jurkat cell; Homo sapiens, Jurkat): 0.3 µM |
| 0.03 to 0.3 | 0.111 | 0.102 | 15.7 | 1.07 | 0.8922 | 5.11 | > 3 | < 0.03 | < 0.5 | > 5 | < 0.5 | CS(C)(=O)=Nc1ccc(C(=O)Nc2cc(-c3ccc(Cl)cc3)ccc2N)cc1 [Compound 3] |  |  |  |  |  |

| SMILES | IC50 (HDAC2; Table 5, read-out: IC50 HDAC2) [µM] | CLint scaled at 1 µM ([1]; Human liver microsomes) [L/h/kg] | Clliver ([1]; Human liver microsomes) [L/h/kg] | half-life at 1 µM ([1]; Human liver microsomes) [h] | CLint scaled at 1 µM ([1]; Mouse liver microsomes) [L/h/kg] | Clliver ([1]; Mouse liver microsomes) [L/h/kg] | half-life at 1 µM ([1]; Mouse liver microsomes) [h] | IC50 (HDAC3; Table 5, read-out: IC50 HDAC3) [µM] | IC50 (HDAC1; Table 5, read-out: IC50 HDAC1) [µM] | IC50 (HDAC2; Table 4, read-out: IC50 HDAC2) [µM] | IC50 (HDAC3; Table 4, read-out: IC50 HDAC3) [µM] | IC50 (HDAC1; Table 4, read-out: IC50 HDAC1) [µM] | H3K 27 Acetyl lysine Maximum (%) (H3K 27 Acetyl lysine) | H3K 27 Acetyl lysine Minimum effective concentration (H3K 27 Acetyl lysine) [nM] | Acetyl lysine Maximum (%) (Acetyl lysine) | Acetyl lysine Minimum effective concentration (Acetyl lysine) [nM] | further results |
| --- | --- | --- | --- | --- | --- | --- | --- | --- | --- | --- | --- | --- | --- | --- | --- | --- | --- |
| CS(=O)(=O)Nc1ccc(C(=O)Nc2cc(-c3ccc(F)cc3)ccc2N)cc1 [Reference Compound, N-(4-amino-4'-fluoro-[1,1'-biphenyl]-3-yl)-4-(S-methylsulfonamido) benzamide, reference compound] | 0.03 to 0.3 |  | 0.7008 |  |  | 0.552 |  | > 3 | 0.03 to 0.3 |  |  |  | 190 | 80 | 350 | 80 | IC50 (HDAC2; Table 6, read-out: IC50 HDAC subtype 2): 0.178 µM; T1/2 ([1]; Human liver microsomes): 1.082 h; Clint ([1]; Human liver microsomes): 1.607 L/h/kg; T1/2 ([1]; Mouse liver microsomes): 8.874 h; Clint ([1]; Mouse liver microsomes): 0.615 L/h/kg; IC50 (HDAC10): 0.0832 µM; IC50 (Jurkat cell): 1.94 µM; IC50 (HDAC3; Table 6, read-out: IC50 HDAC subtype 3): 8.28 µM; Change in body weight(%) ([2]; monotherapy 90 mg/kg QD PO): 17.04 ± 1.54%; Tumor response, number of mice (CR/PR/SD) ([2]; monotherapy 90 mg/kg QD PO, CR complete remission, PR partial response, SD stable disease, 6 mice per group): 1PR; TGI(%) ([2]; monotherapy 90 mg/kg, QD for 10 consecutive days, PO): 73.90%; Change in body weight(%) ([3]; monotherapy 30 mg/kg QD PO): 4.73±1.54%; Tumor response, number of mice (CR/PR/SD) ([3]; monotherapy 30 mg/kg QD PO): 1PR; TGI(%) ([3]; monotherapy 30 mg/kg): 56.10%; Change in body weight(%) ([3]; monotherapy 90 mg/kg QD PO): -3.53±2.89%; Tumor response, number of mice (CR/PR/SD) ([3]; monotherapy 90 mg/kg QD PO): 1PR+2SD; TGI(%) ([3]; monotherapy 90 mg/kg): 95.93%; IC50 (HDAC1; Table 6, read-out: IC50 HDAC subtype 1): 0.0444 µM |
